Peptide text beside a SMILES is read from it. * marks the point of attachment. Dansyl = CN(C)c1cccc2c(S(=O)(=O)*)cccc12
Tested on: P100 membrane fractions derived from Caco-2 cells
Assay: Dansylated peptide ELISA: relative binding of PAX2 and HAX42 peptides to P100 (ratio to ZElan021)
Details: ratio to ZElan021 = 1.00
Experimental: The peptides and proteins were analyzed by a dansylated peptide ELISA method in which 96 well plates were coated overnight at 4° C. with 100 μl/well coating protein (normally 100 μg/ml P100 membrane fraction) in 0.05M carbonate buffer pH9.6. Nonspecific binding was blocked using 200 μl/well, 2% Marvel/PBS for 2 hours at 37° C. prior to incubation with dansylated peptides. The plates were washed three times with PBS/0.05% Tween 20 and after each subsequent incubation step. […] A buffer blank control was included to ensure that background binding to plastic was not due to the antibodies used in the assay system. […] The plates were then incubated with an anti-mouse X-HRP conjugated antibody (Southern Biotech 1060-05) at a 1:10,000 dilution in blocking solution, 100 μl/well for 1 hour at room temperature. Plates were developed using 75 μl/well Bionostics TMB substrate and incubated for approximately 10 minutes. The developing reaction was stopped using Bionostics Red Stop solution (25 μl/well), and the optical density of the plates was read at 650nm.

[1] = PAX2 peptides, first 20 μg/ml column
[2] = PAX2 peptides, first 50 μg/ml column
[3] = PAX2 peptides, second 20 μg/ml column
[4] = PAX2 peptides, second 50 μg/ml column
[5] = HAX42 peptides, first 50 μg/ml column
[6] = HAX42 peptides, second 50 μg/ml column

C[C@H](NC(=O)[C@H](CC(N)=O)NC(=O)[C@@H](NC(=O)[C@@H](N)CCCCNS(=O)(=O)c1cccc2c(N(C)C)cccc12)[C@@H](C)O)C(=O)N[C@@H](CCCCN)C(=O)N[C@@H](Cc1c[nH]cn1)C(=O)N[C@@H](CO)C(=O)N[C@@H](CO)C(=O)N[C@@H](Cc1c[nH]cn1)C(=O)N[C@@H](CC(N)=O)C(N)=O [ZElan055] (H-K(Dansyl)TNAKHSSHN-NH2)
Binding value at 20 μg/ml [1]: 0.99
Binding value at 50 μg/ml [2]: 1.10
Binding value at 20 μg/ml [3]: 0.73
Binding value at 50 μg/ml [4]: 0.59

CC(C)C[C@H](NC(=O)[C@H](CCCNC(=N)N)NC(=O)[C@H](CCCNC(=N)N)NC(=O)[C@@H](N)CCCCNS(=O)(=O)c1cccc2c(N(C)C)cccc12)C(=O)N[C@@H](CCCNC(=N)N)C(=O)N[C@H](C(=O)N[C@@H](CCCNC(=N)N)C(=O)N[C@@H](CO)C(=O)N[C@@H](CCCNC(=N)N)C(=O)N1CCC[C@H]1C(=O)N[C@@H](CC(N)=O)C(N)=O)[C@@H](C)O [ZElan056] (H-K(Dansyl)RRLRTRSRPN-NH2)
Binding value at 20 μg/ml [1]: 0.00
Binding value at 50 μg/ml [2]: 0.21
Binding value at 20 μg/ml [3]: 0.16
Binding value at 50 μg/ml [4]: 0.21

CC(C)C[C@H](NC(=O)[C@H](CCCNC(=N)N)NC(=O)[C@H](CCCNC(=N)N)NC(=O)[C@@H](N)CCCCNS(=O)(=O)c1cccc2c(N(C)C)cccc12)C(=O)N[C@@H](CCCNC(=N)N)C(=O)N[C@H](C(=O)N[C@@H](CCCNC(=N)N)C(=O)N[C@@H](CO)C(=O)N[C@@H](CCCNC(=N)N)C(N)=O)[C@@H](C)O [ZElan057] (H-K(Dansyl)RRLRTRSR-NH2)
Binding value at 20 μg/ml [1]: 0.08
Binding value at 50 μg/ml [2]: 0.56
Binding value at 50 μg/ml [4]: 0.25

CC(C)C[C@H](NC(=O)[C@H](CCCNC(=N)N)NC(=O)[C@H](CCCNC(=N)N)NC(=O)[C@@H](N)CCCCNS(=O)(=O)c1cccc2c(N(C)C)cccc12)C(=O)N[C@@H](CCCNC(=N)N)C(=O)N[C@H](C(=O)N[C@@H](CCCNC(=N)N)C(N)=O)[C@@H](C)O [ZElan058, H2N—K(dns)RRLRTR—CONH2] (H-K(Dansyl)RRLRTR-NH2)
Binding value at 20 μg/ml [1]: 0.05
Binding value at 50 μg/ml [2]: 0.47
Binding value at 50 μg/ml [4]: 0.16

CC(C)C[C@H](NC(=O)[C@H](C)NC(=O)[C@H](Cc1c[nH]cn1)NC(=O)[C@H](CC(=O)O)NC(=O)[C@H](CO)NC(=O)[C@@H](N)CCCCNS(=O)(=O)c1cccc2c(N(C)C)cccc12)C(=O)NCC(=O)N[C@H](C(=O)N[C@@H](CC(N)=O)C(=O)N[C@@H](CC(C)C)C(=O)N[C@@H](CCCNC(=N)N)C(=O)N[C@@H](CO)C(=O)N[C@@H](CC(=O)O)C(=O)N[C@@H](CC(N)=O)C(=O)N[C@@H](C)C(=O)N[C@@H](CCCCN)C(=O)N[C@@H](CCC(=O)O)C(=O)N1CCC[C@H]1C(=O)NCC(=O)N[C@@H](CC(=O)O)C(=O)N[C@@H](Cc1ccc(O)cc1)C(=O)N[C@@H](CC(N)=O)C(=O)N[C@@H](CS)C(=O)N[C@@H](CS)C(=O)NCC(=O)N[C@@H](CC(N)=O)C(=O)NCC(N)=O)[C@@H](C)O [ZElan060] (H-K(Dansyl)SDHALGTNLRSDNAKEPGDYNCCGNG-NH2)
Binding value at 20 μg/ml (HAX42 peptides): 0.44
Binding value at 50 μg/ml [5]: 0.56
Binding value at 50 μg/ml [6]: 0.43

CC[C@H](C)[C@H](NC(=O)[C@H](C)NC(=O)[C@H](CO)NC(=O)[C@@H]1CCCN1C(=O)[C@H](CCCNC(=N)N)NC(=O)[C@H](CCCNC(=N)N)NC(=O)[C@H](CCCNC(=N)N)NC(=O)[C@H](CC(N)=O)NC(=O)[C@H](Cc1ccccc1)NC(=O)[C@@H](NC(=O)[C@H](CCCCN)NC(=O)[C@H](CCCNC(=N)N)NC(=O)CNC(=O)[C@@H](NC(=O)[C@H](CO)NC(=O)[C@H](CC(N)=O)NC(=O)CNC(=O)[C@H](CC(N)=O)NC(=O)CNC(=O)[C@H](CS)NC(=O)[C@H](CS)NC(=O)[C@H](CC(N)=O)NC(=O)[C@H](Cc1ccc(O)cc1)NC(=O)[C@H](CC(=O)O)NC(=O)CNC(=O)[C@@H](N)CCCCNS(=O)(=O)c1cccc2c(N(C)C)cccc12)[C@@H](C)O)C(C)C)C(=O)N1CCC[C@H]1C(=O)N[C@H](C(N)=O)[C@@H](C)O [ZElan061] (H-K(Dansyl)GDYNCCGNGNSTGRKVFNRRRPSAIPT-NH2)
Binding value at 20 μg/ml (HAX42 peptides): 0.20
Binding value at 50 μg/ml [5]: 0.60
Binding value at 50 μg/ml [6]: 0.38

CC(C)C[C@H](NC(=O)[C@H](C)NC(=O)[C@H](Cc1c[nH]cn1)NC(=O)[C@H](CC(=O)O)NC(=O)[C@H](CO)NC(=O)[C@@H](N)CCCCNS(=O)(=O)c1cccc2c(N(C)C)cccc12)C(=O)NCC(=O)N[C@H](C(=O)N[C@@H](CC(N)=O)C(=O)N[C@@H](CC(C)C)C(=O)N[C@@H](CCCNC(=N)N)C(=O)N[C@@H](CO)C(=O)N[C@@H](CC(=O)O)C(=O)N[C@@H](CC(N)=O)C(=O)N[C@@H](C)C(=O)N[C@@H](CCCCN)C(=O)N[C@@H](CCC(=O)O)C(=O)N1CCC[C@H]1C(=O)NCC(N)=O)[C@@H](C)O [ZElan062] (H-K(Dansyl)SDHALGTNLRSDNAKEPG-NH2)
Binding value at 20 μg/ml (HAX42 peptides): 0.11
Binding value at 50 μg/ml [5]: 0.42
Binding value at 50 μg/ml [6]: 0.34

CC(C)[C@H](NC(=O)[C@H](CCCCN)NC(=O)[C@H](CCCNC(=N)N)NC(=O)[C@@H](N)CCCCNS(=O)(=O)c1cccc2c(N(C)C)cccc12)C(=O)N[C@@H](Cc1ccccc1)C(=O)N[C@@H](CC(N)=O)C(=O)N[C@@H](CCCNC(=N)N)C(=O)N[C@@H](CCCNC(=N)N)C(=O)N[C@@H](CCCNC(=N)N)C(=O)N1CCC[C@H]1C(=O)N[C@@H](CO)C(N)=O [ZElan065] (H-K(Dansyl)RKVFNRRRPS-NH2)
Binding value at 20 μg/ml (HAX42 peptides): 0.00
Binding value at 50 μg/ml [5]: 0.54
Binding value at 50 μg/ml [6]: 0.30

CN(C)c1cccc2c(S(=O)(=O)NCCCC[C@H](N)C(=O)N[C@@H](CC(N)=O)C(=O)N[C@@H](CCCNC(=N)N)C(=O)N[C@@H](CCCNC(=N)N)C(=O)N[C@@H](CCCNC(=N)N)C(=O)N3CCC[C@H]3C(=O)N[C@@H](CO)C(N)=O)cccc12 [ZElan067, H2N—K(dns)NRRRPS—CONH2] (H-K(Dansyl)NRRRPS-NH2)
Binding value at 20 μg/ml (HAX42 peptides): 0.08
Binding value at 50 μg/ml [5]: 0.52
Binding value at 50 μg/ml [6]: 0.40

CC(C)C[C@H](NC(=O)[C@H](C)NC(=O)[C@H](Cc1c[nH]cn1)NC(=O)[C@H](CC(=O)O)NC(=O)[C@H](CO)NC(=O)[C@@H](N)CCCCNS(=O)(=O)c1cccc2c(N(C)C)cccc12)C(=O)NCC(=O)N[C@H](C(=O)N[C@@H](CC(N)=O)C(=O)N[C@@H](CC(C)C)C(=O)N[C@@H](CCCNC(=N)N)C(=O)N[C@@H](CO)C(=O)N[C@@H](CC(=O)O)C(=O)N[C@@H](CC(N)=O)C(=O)N[C@@H](C)C(=O)N[C@@H](CCCCN)C(=O)N[C@@H](CCC(=O)O)C(=O)N1CCC[C@H]1C(=O)NCC(=O)N[C@@H](CC(=O)O)C(=O)N[C@@H](Cc1ccc(O)cc1)C(=O)N[C@@H](CC(N)=O)C(=O)N[C@@H](CS)C(=O)N[C@@H](CS)C(=O)NCC(=O)N[C@@H](CC(N)=O)C(=O)NCC(=O)N[C@@H](CC(N)=O)C(=O)N[C@@H](CO)C(=O)N[C@H](C(N)=O)[C@@H](C)O)[C@@H](C)O [ZElan070] (H-K(Dansyl)SDHALGTNLRSDNAKEPGDYNCCGNGNST-NH2)
Binding value at 20 μg/ml (HAX42 peptides): 0.59
Binding value at 50 μg/ml [5]: 0.97
Binding value at 50 μg/ml [6]: 0.39

CC(C)C[C@H](NC(=O)[C@H](CC(N)=O)NC(=O)[C@@H](N)CCCCNS(=O)(=O)c1cccc2c(N(C)C)cccc12)C(=O)N[C@@H](CCCNC(=N)N)C(=O)N[C@@H](CO)C(=O)N[C@@H](CC(=O)O)C(=O)N[C@@H](CC(N)=O)C(=O)N[C@@H](C)C(=O)N[C@@H](CCCCN)C(=O)N[C@@H](CCC(=O)O)C(=O)N1CCC[C@H]1C(=O)NCC(=O)N[C@@H](CC(=O)O)C(=O)N[C@@H](Cc1ccc(O)cc1)C(=O)N[C@@H](CC(N)=O)C(=O)N[C@@H](CS)C(=O)N[C@@H](CS)C(=O)NCC(=O)N[C@@H](CC(N)=O)C(=O)NCC(=O)N[C@@H](CC(N)=O)C(=O)N[C@@H](CO)C(=O)N[C@H](C(=O)NCC(=O)N[C@@H](CCCNC(=N)N)C(=O)N[C@@H](CCCCN)C(=O)N[C@H](C(=O)N[C@@H](Cc1ccccc1)C(=O)N[C@@H](CC(N)=O)C(=O)N[C@@H](CCCNC(=N)N)C(N)=O)C(C)C)[C@@H](C)O [ZElan071] (H-K(Dansyl)NLRSDNAKEPGDYNCCGNGNSTGRKVFNR-NH2)
Binding value at 20 μg/ml (HAX42 peptides): 1.22
Binding value at 50 μg/ml [5]: 0.89
Binding value at 50 μg/ml [6]: 0.75

CC[C@H](C)[C@H](NC(=O)[C@H](C)NC(=O)[C@H](CO)NC(=O)[C@@H]1CCCN1C(=O)[C@H](CCCNC(=N)N)NC(=O)[C@H](CCCNC(=N)N)NC(=O)[C@H](CC(N)=O)NC(=O)[C@H](Cc1ccccc1)NC(=O)[C@@H](NC(=O)[C@H](CCCCN)NC(=O)[C@H](CCCNC(=N)N)NC(=O)CNC(=O)[C@@H](NC(=O)[C@H](CO)NC(=O)[C@H](CC(N)=O)NC(=O)CNC(=O)[C@H](CC(N)=O)NC(=O)CNC(=O)[C@H](CS)NC(=O)[C@H](CS)NC(=O)[C@H](CC(N)=O)NC(=O)[C@H](Cc1ccc(O)cc1)NC(=O)[C@H](CC(=O)O)NC(=O)CNC(=O)[C@@H]1CCCN1C(=O)[C@@H](N)CCCCNS(=O)(=O)c1cccc2c(N(C)C)cccc12)[C@@H](C)O)C(C)C)C(=O)N1CCC[C@H]1C(=O)N[C@H](C(N)=O)[C@@H](C)O [ZElan072] (H-K(Dansyl)PGDYNCCGNGNSTGRKVFNRRPSAIPT-NH2)
Binding value at 20 μg/ml (HAX42 peptides): 0.83
Binding value at 50 μg/ml [5]: 0.61
Binding value at 50 μg/ml [6]: 0.88

Reference: US6703362B1, “Random peptides that bind to gastro-intestinal tract (GIT) transport receptors and related methods” (Cytogen Corporation, priority 1997, dated 2004)
